In ChEMBL document CHEMBL1138327, “Metal-based paullones as putative CDK inhibitors for antitumor chemotherapy” (2007):

Key:
Assay type in all cases: functional
A549 [1] = experiment: Cell cycle arrest in human A549 cells assessed as accumulation at G2/M phase at 30 nM after 24 hrs by flow cytometry
A549 [2] = experiment: Cell cycle arrest in human A549 cells assessed as accumulation at G0/G1 phase at 30 nM after 24 hrs by flow cytometry
A549 [3] = experiment: Cell cycle arrest in human A549 cells assessed as accumulation at S phase at 30 nM after 24 hrs by flow cytometry

Structure (SMILES): CN[C@@H]1C[C@H]2O[C@@](C)([C@@H]1OC)n1c3ccccc3c3c4c(c5c6ccccc6n2c5c31)C(=O)NC4 [STAUROSPORINE]
- Activity (A549 [1]): 9.1%
- Activity (A549 [2]): 74.6%
- Activity (A549 [3]): 16.4%
